The results in this text go back to US10195297B2, “Iron garnet nanoparticles for cancer radiotherapy and chemotherapy” (priority 2014, dated 2019).

The test system of assay [1] is human NSCLC A549 cells. The assay can be described thus: MTS cytotoxicity studies of 166HoIG, 166HoIG-Pt and free Pt drugs (Example 6). The assay is classed as cell-based. Conditions: 24 h.
Procedure: Cytotoxicity studies. The studies involving human NSCLC A549 cells were carried out under standard conditions in a humidified, 37° C., 5% CO2 atmosphere incubator. The culture medium used for A549 was Roswell Park Memorial Institute with 10% fetal calf serum (FCS), 100 μg/mL streptomycin, 100 IU/mL penicillin and 2.0 mM L-glutamine (RPMI).
Suspensions of each type of neutron-activated nanoparticle were prepared in RPMI. Two control groups, RPMI alone and RPMI with cells not exposed to ^166Ho nanoparticles, were included in each 96-well plate. At least four replicates were done for each concentration and each control group. The cells were seeded at 5×10^4 cells/mL (100 μL/well) in 96-well plates and allowed to grow for 24 h after which time the RPMI was removed and replaced with 100 μL of RPMI that contained blank ^166HoIG or ^166HoIG-Pt. After an exposure time of 24 h on a microplate shaker in the incubator, the RPMI was removed and replaced with 100 μL of fresh RPMI. […] After 1 h incubation with the MTS solution, the absorbance was read at 490 nm using a Synergy™ H1 hybrid multi-mode microplate reader. The percent survival of cells treated by each concentration of nanoparticles was calculated using the following equation:
[formula] where Ad is the absorbance of cells treated with nanoparticles, Am is the absorbance of medium alone and Ac is the absorbance of cells without treatment.
The test system of assay [2] is human NSCLC A549 cells. The assay can be described thus: MTS cytotoxicity of neutron-activated nanoparticles and free Pt drugs (Example 2). The assay is classed as cell-based. Conditions: 24 h.
Procedure: The radioactivity of nanoparticles prior to administration to cells was determined using a 2470 WIZARD 2 automatic gamma counter. Studies involving human NSCLC A549 cells were carried out under standard conditions in a humidified, 37° C., 5% CO2 atmosphere incubator. The culture medium used for A549 cells was minimum essential medium to which had been added 10% fetal calf serum, 100 μg/mL streptomycin, 100 IU/mL penicillin and 2.0 mM L-glutamine. Cells were seeded at 5×10^4 cells/ml (100 μL/well) in 96-well plates and allowed to grow for 24 h after which time the medium was removed and replaced with medium and drug. After an exposure time of 24 h, the medium with drug was removed and replaced with 100 μL of fresh medium. To each well, 20 μL of CellTiter 96® AQueous One Solution Cell Proliferation Assay (MTS) solution was added. After 2 h incubation with the MTS solution, the absorbance was read at 490 nm using a Synergy™ H1 hybrid multi-mode microplate reader. The percent survival of cells treated by each concentration of drug was calculated using the following equation:
[formula] where Ad is the absorbance of cells treated with drug, Am is the absorbance of medium alone and Ac is the absorbance of cells without treatment. The % survival data was fit to exponential regression and IC50 values calculated.

Regarding `N.N.O=C([O-])C1(C(=O)[O-])CCC1.[Pt+2]` [Free carboplatin, carboplatin], in the assay on human NSCLC A549 cells [1], the synergy with radiation entry is on record as “did not act synergistically with radiation”.

Turning to `N.N.[Cl][Pt][Cl]` [cis, cisplatin], the “synergy with the radioactive Ho” value with human NSCLC A549 cells [2] is recorded as “act synergistically”.
